This note sets out measurements from PMC4865845, “A human genome-wide loss-of-function screen identifies effective chikungunya antiviral drugs” (Nature Communications, 2016).

The data set relates to CHIKV. Type of data set: cell-based, chikungunya virus.
As to “Hs_MRPS12_2 (CTGCTGGGACAAGACACTGTA; chemistry not given here)”, the Score_si2 is recorded as 1.92.

“Hs_AP3S2_2 (CAGGGCTTAGGCGCCCATAAA; chemistry not given here)” had a Score_si1 of 1.97.

For “s12243 (sense GCTGGGACAAGACACTGTA; chemistry not given here)”, the Score_si3 is listed as 1.87.

Regarding “Hs_PPIL2_2 (AAGGAGGAGATCCGCATTGAT; chemistry not given here)”, the Score_si1 is listed as 1.35.

“Hs_EXOSC1_1 (TTCATTCTCTTGAGTAATAAA; chemistry not given here) [reference compound]”: the Score_si4 is 0.51.

“Hs_GSTP1_5 (sense CCTCATCTACACCAACTATGA; chemistry not given here)”: the Score_si3 was 0.45.

On to “s21424 (sense GCAGTGAAATATCCATGAT; chemistry not given here)”, for which the Score_si2 was 0.74.

Turning to “s195094 (sense CCTCTTCCACCGCTACTTC; chemistry not given here) [reference compound]”, the Score_si2 is -0.76.

“s2664 (sense CGTCCATGTTTATCTACAA; chemistry not given here)” had a Score_si4 of 0.12.

“Hs_ATF1_8 (CTGCATCAGGAGATATGCAAA; chemistry not given here) [reference compound]” returned a Score_si1 of -1.45.

“s25626 (sense CAAATCCTATAGTATAACA; chemistry not given here) [reference compound]”: the Score_si4 is reported as -0.37.

“Hs_LIP8_1 (sense CTGGACTTTGCTAAAGCAGAA; chemistry not given here)”: the Score_si4 stood at 0.62.

Regarding “Hs_CCNF_2 (sense AACCCAAGCGTTGGAACTGTA; chemistry not given here)”, the Score_si1 is 2.05.

Substance “s35332 (CAGGTATTCAGGTCCATGA; chemistry not given here)” yielded a Score_si3 of 0.27.

Substance “s5083 (sense CGTCGTCACTAACAGTCAA; chemistry not given here)” had a Score_si3 of 1.11.

Substance “Hs_SHC2_10 (sense GCGGTTTGTCCTACAAGTTTA; chemistry not given here)” had a Score_si4 of 0.47.

“Hs_PTPN4_3 (sense AGCACGTACCTTAGAACTCTA; chemistry not given here)” registered a Score_si3 of 1.47.

For “Hs_E2F3_5 (TACAGTATTTGCGTTACTTTA; chemistry not given here) [reference compound]”, the Score_si2 is reported as -1.78.

In turn, “s30118 (CCTGCTATCTTGGTTCCAA; chemistry not given here)” showed a Score_si4 of 0.62.

“Hs_UBE2C_8 (GAGCCCTTGTATATTAAATAA; chemistry not given here) [reference compound]” registered a Score_si1 of -1.05.

Take “Hs_RPS6KC1_1 (sense CCGGGTTGTTTCACGAAGAAA; chemistry not given here) [reference compound]”: the Score_si2 is -1.09.

On to “Hs_PITRM1_1 (TAGGTTCTTCACGTACGGTAA; chemistry not given here) [reference compound]”, for which the Score_si1 is reported as -1.2.

Substance “s8541 (CAATCTCCGGAGGCACGAA; chemistry not given here)” gave a Score_si3 of 0.12.

The substance “s10096 (GGTGTAAGATCAAAGAGAT; chemistry not given here)” came in with a Score_si3 of 1.3.

In turn, “s10856 (sense AAGTTTACGTGAACAAATT; chemistry not given here)” gave a Score_si3 of -0.27.

In the case of “s3113 (GGCGAGAGGGTATCAAGTA; chemistry not given here)”, the Score_si4 was 1.79.

In the case of “s20833 (sense GAATATGACTCTGCAAAGA; chemistry not given here)”, the Score_si4 was found to be 0.65.

Take “Hs_CDK4_1 (sense CCGAACTGACCGGGAGATCAA; chemistry not given here)”: the Score_si2 came out at 1.51.
